Test results from ChEMBL document CHEMBL4339188, “Tackling neuroinflammation and cholinergic deficit in Alzheimer's disease: Multi-target inhibitors of cholinesterases, cyclooxygenase-2 and 15-lipoxygenase” (Eur J Med Chem, 2019).

Experiments:
HepG2 = assay: cells; settings: Homo sapiens, HepG2, 72 h
Description: Cytotoxicity against human HepG2 cell assessed as reduction in cell viability incubated for 72 hrs by MTT assay

Cholinesterase = Cholinesterase (Homo sapiens, UniProt P06276); assay: Inhibition of human serum BChE using butyrylthiocholine iodide as substrate pre-incubated for 20 mins before substrate addition and measured for 180 secs by spectrophotometry based Ellman's method
Cholinesterase, sequence (P06276 whole entry): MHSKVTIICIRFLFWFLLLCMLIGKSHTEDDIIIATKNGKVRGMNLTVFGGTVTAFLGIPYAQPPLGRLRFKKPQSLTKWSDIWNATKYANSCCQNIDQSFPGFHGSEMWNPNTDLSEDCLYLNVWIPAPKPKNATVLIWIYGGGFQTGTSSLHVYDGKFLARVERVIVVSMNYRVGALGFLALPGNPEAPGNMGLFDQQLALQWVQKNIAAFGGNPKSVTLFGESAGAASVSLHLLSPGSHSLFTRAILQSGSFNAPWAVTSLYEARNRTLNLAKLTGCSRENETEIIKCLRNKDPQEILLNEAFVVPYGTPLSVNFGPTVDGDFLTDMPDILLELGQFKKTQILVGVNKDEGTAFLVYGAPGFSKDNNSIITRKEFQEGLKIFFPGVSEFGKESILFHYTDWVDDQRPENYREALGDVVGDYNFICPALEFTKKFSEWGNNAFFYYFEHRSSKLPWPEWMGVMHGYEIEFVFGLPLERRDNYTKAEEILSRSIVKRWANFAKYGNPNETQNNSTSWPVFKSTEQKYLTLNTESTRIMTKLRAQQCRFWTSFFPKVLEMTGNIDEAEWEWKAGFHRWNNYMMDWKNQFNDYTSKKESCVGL

in vitro [1] = settings: human, HepG2 cells
Description: Cytotoxicity against human HepG2 cell assessed as safe dose that maintains 100% cell viability incubated for 72 hrs by MTT assay

in vitro [2] = settings: mouse, mouse neuronal cells
Description: Toxicity in mouse neuronal cells assessed as safe dose that maintains 100% cell viability incubated for 72 hrs by MTT assay

in vitro [3] = settings: mouse, mouse neuronal cells; remark: listed apart in the source
Description: Toxicity in mouse neuronal cells assessed as reduction in cell viability incubated for 72 hrs by MTT assay

Acetylcholinesterase [4] = target: Acetylcholinesterase (Homo sapiens, UniProt P22303); assay: Inhibition of recombinant human AChE using acetylthiocholine iodide as substrate pre-incubated for 20 mins before substrate addition and measured for 180 secs by spectrophotometry based Ellman's method
Acetylcholinesterase (Homo sapiens, UniProt P22303), sequence (P22303 whole entry): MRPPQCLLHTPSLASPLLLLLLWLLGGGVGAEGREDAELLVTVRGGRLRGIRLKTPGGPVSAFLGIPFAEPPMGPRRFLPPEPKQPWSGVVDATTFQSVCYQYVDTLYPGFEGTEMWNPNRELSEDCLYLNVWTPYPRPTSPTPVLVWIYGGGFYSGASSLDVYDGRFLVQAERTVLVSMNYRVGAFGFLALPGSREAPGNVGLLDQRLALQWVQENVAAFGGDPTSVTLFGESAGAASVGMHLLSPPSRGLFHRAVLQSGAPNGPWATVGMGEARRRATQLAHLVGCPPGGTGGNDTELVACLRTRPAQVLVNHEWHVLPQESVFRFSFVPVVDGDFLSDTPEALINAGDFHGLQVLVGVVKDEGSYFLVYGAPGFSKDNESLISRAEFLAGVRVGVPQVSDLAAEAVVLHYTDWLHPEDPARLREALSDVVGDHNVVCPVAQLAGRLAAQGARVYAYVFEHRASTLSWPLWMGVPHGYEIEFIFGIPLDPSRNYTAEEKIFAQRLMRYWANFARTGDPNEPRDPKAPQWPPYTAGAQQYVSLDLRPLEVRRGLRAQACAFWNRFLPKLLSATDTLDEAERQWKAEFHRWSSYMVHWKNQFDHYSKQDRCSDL

Acetylcholinesterase [5] = target: Acetylcholinesterase (Electrophorus electricus, UniProt O42275); assay: Inhibition of electric eel AChE using acetylthiocholine iodide as substrate incubated for 10 mins by spectrophotometry based Ellman's method
Acetylcholinesterase (Electrophorus electricus, UniProt O42275), sequence (O42275 whole entry): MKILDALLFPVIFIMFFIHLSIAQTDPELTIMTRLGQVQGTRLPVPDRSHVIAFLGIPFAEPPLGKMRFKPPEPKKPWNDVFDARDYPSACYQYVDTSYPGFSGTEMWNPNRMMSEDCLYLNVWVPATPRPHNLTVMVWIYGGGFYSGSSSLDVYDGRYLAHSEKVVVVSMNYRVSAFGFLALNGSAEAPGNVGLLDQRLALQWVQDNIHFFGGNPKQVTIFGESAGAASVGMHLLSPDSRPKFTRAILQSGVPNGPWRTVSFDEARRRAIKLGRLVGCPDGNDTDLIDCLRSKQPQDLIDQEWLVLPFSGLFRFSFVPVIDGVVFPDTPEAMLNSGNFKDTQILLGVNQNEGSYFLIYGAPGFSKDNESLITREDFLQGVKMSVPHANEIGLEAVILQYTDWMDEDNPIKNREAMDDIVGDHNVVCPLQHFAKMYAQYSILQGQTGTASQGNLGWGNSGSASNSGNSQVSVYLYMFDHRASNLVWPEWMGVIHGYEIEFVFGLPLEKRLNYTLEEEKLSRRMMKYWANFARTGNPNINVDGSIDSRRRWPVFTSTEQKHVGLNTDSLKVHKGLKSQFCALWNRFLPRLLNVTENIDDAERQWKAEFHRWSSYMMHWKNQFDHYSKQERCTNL

in vitro [6] = settings: PAMPA, pH 7.4
PC-12 [7] = assay: Cytotoxicity against rat PC12 cells assessed as reduction in cell viability up to 300 uM by MTS assay; type: cell-based
PC-12 [8] = assay: Anti-inflammatory activity in lipopolysaccharide challenged rat PC12 cells assessed as decrease in interleukin-1 beta production at 100 uM pre-incubated for 24 hrs before LPS challenge for 48 hrs by immunoblot analysis; type: functional
[9] = target: T1, Prostaglandin G/H synthase 1 (Ovis aries, UniProt P05979); assay: Inhibition of ovine COX -1 by colorimetric inhibitor screening assay kit method
T1 sequence (P05979 whole entry): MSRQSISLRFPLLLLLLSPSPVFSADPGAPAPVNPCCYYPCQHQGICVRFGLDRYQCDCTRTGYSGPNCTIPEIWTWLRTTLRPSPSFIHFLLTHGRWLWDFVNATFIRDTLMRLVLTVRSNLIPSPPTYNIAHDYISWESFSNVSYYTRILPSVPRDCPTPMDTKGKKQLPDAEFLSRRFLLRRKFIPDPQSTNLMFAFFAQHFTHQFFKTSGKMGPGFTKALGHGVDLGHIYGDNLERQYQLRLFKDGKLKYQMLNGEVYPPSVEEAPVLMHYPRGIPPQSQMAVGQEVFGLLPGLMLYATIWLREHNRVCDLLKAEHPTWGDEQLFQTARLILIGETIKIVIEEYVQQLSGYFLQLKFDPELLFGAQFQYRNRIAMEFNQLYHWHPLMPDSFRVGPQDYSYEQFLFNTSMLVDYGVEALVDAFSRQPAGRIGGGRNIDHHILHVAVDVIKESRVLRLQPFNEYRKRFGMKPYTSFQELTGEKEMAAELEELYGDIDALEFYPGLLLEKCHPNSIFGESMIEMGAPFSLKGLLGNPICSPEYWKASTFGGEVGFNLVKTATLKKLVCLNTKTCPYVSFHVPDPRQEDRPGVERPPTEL

[10] = Safety index, ratio of EC100 for test compound to EC100 for tacrine for cytotoxicity against human HepG2 cell assessed as safe dose that maintains 100% cell viability incubated for 72 hrs by MTT assay; type: cell-based; settings: HepG2 cells
PC-12 [11] = assay: Anti-inflammatory activity in lipopolysaccharide challenged rat PC12 cells assessed as decrease in TNFalpha production at 100 uM pre-incubated for 24 hrs before LPS challenge for 48 hrs by immunoblot analysis; type: functional

| Structure (SMILES) | IC50 (HepG2) | IC50 (Cholinesterase) | MNTC at 72 h (in vitro [1]) | MNTC at 72 h (in vitro [2]) | IC50 at 72 h (in vitro [3]) | IC50 (Acetylcholinesterase [4]) | IC50 (Acetylcholinesterase [5]) | Papp at 6 h, 50 µM (in vitro [6]) | Activity (PC-12 [7]) | inhibition at 100 µM (PC-12 [8]) | IC50 [9] | selectivity ratio at 72 h [10] | inhibition at 100 µM (PC-12 [11]) |
| --- | --- | --- | --- | --- | --- | --- | --- | --- | --- | --- | --- | --- | --- |
| C(=N\Nc1c2c(nc3ccccc13)CCCC2)/c1ccc(OCc2cn(Cc3ccccc3)nn2)cc1 | 33.4 µM | 0.0361 µM | 1.2 µM | 2670 nM | 5.71 µM | 1.05 µM | 0.547 µM |  |  |  |  |  |  |
| CNC(=C[N+](=O)[O-])NCCSCc1ccc(CN(C)C)o1 [RANITIDINE] |  |  |  |  |  |  |  | 0.04 ×10⁻⁶ cm/s |  |  |  |  |  |
| C#CCOc1ccc(/C=N/Nc2c3c(nc4ccccc24)CCCC3)cc1 | 46.1 µM | 0.11 µM | 2.73 µM | 4810 nM | 8.79 µM | 2.73 µM | 0.438 µM |  |  |  |  |  |  |
| NS(=O)(=O)c1ccc(NC(=S)NNc2c3c(nc4ccccc24)CCCC3)cc1 | 42.3 µM | 0.307 µM | 1.19 µM | 295 nM | 3.25 µM | 0.961 µM | 0.792 µM |  |  |  |  |  |  |
| Cl.Clc1ccc(-n2cc(COc3ccc(/C=N/Nc4c5c(nc6ccccc46)CCCC5)cc3)nn2)cc1 | 178 µM | 0.0678 µM | 70 µM | 3580 nM | 8.28 µM | 7.03 µM | 4.38 µM | 6.07 ×10⁻⁶ cm/s | Non-Toxic | > 90% | 13.4 µM | 72 | > 60% |
| C(=N\Nc1c2c(nc3ccccc13)CCCC2)/c1ccc(OCc2cn(-c3ccccc3)nn2)cc1 | 28.4 µM | 0.054 µM | 3.1 µM | 1950 nM | 34.5 µM | 0.9 µM | 0.917 µM |  |  |  |  |  |  |
| Brc1ccc(-n2cc(COc3ccc(/C=N/Nc4c5c(nc6ccccc46)CCCC5)cc3)nn2)cc1.Cl | 96.7 µM | 0.0926 µM | 47.9 µM | 1000 nM | 18.6 µM | 12.8 µM | 18.1 µM | 6.26 ×10⁻⁶ cm/s | 30% |  | 13.9 µM |  |  |
| COc1ccc(NC(=S)NNc2c3c(nc4ccccc24)CCCC3)cc1 | 70.7 µM | 0.568 µM | 3.33 µM | 1380 nM | 4.33 µM | 0.293 µM | 0.91 µM |  |  |  |  |  |  |
| NS(=O)(=O)c1ccc(-n2cc(COc3ccc(/C=N/Nc4c5c(nc6ccccc46)CCCC5)cc3)nn2)cc1 | 25.7 µM | 0.0389 µM | 1.04 µM | 1580 nM | 16.4 µM | 1.11 µM | 0.807 µM |  |  |  |  |  |  |
| O=[N+]([O-])c1cccc(-n2cc(COc3ccc(/C=N/Nc4c5c(nc6ccccc46)CCCC5)cc3)nn2)c1 | 50.1 µM | 0.0482 µM | 4.18 µM | 976 nM | 28 µM | 1.46 µM | 0.066 µM |  |  |  |  |  |  |
| S=C(NNc1c2c(nc3ccccc13)CCCC2)Nc1ccc(Cl)cc1 | 21.9 µM | 0.328 µM | 1.97 µM | 2400 nM | 7.1 µM | 0.786 µM | 3.83 µM |  |  |  |  |  |  |
| S=C(NNc1c2c(nc3ccccc13)CCCC2)Nc1ccc(Br)cc1 | 69.5 µM | 0.426 µM | 2.96 µM | 788 nM | 19.7 µM | 0.571 µM | 0.861 µM |  |  |  |  |  |  |
| O=[N+]([O-])c1ccc(-n2cc(COc3ccc(/C=N/Nc4c5c(nc6ccccc46)CCCC5)cc3)nn2)cc1 | 53.6 µM | 0.0256 µM | 7.7 µM | 830 nM | 2.95 µM | 1.05 µM | 0.535 µM |  |  |  |  |  |  |
| Cc1ccc(-n2cc(COc3ccc(/C=N/Nc4c5c(nc6ccccc46)CCCC5)cc3)nn2)cc1.Cl | 262 µM | 0.0757 µM | 113 µM | 2580 nM | 5.85 µM | 3.75 µM | 20.2 µM | 5.5 ×10⁻⁶ cm/s | Non-Toxic | > 90% | 10.9 µM | 116 | > 60% |
| C=CCNC(=S)NNc1c2c(nc3ccccc13)CCCC2 | 80 µM | 0.722 µM | 0.63 µM | 2770 nM | 6.83 µM | 5.77 µM | 1.35 µM |  |  |  |  |  |  |
| S=C(NNc1c2c(nc3ccccc13)CCCC2)Nc1ccccc1 | 82.9 µM | 0.748 µM | 6.78 µM | 395 nM | 10.9 µM | 0.61 µM | 1.85 µM |  |  |  |  |  |  |
| Cl.O=C(O)c1ccc(-n2cc(COc3ccc(/C=N/Nc4c5c(nc6ccccc46)CCCC5)cc3)nn2)cc1 | 97.9 µM | 0.304 µM | 43.1 µM | 162 nM | 3.71 µM | 4.03 µM | 1.32 µM | 1.77 ×10⁻⁶ cm/s |  |  |  | 43 |  |
| COc1ccc(-n2cc(COc3ccc(/C=N/Nc4c5c(nc6ccccc46)CCCC5)cc3)nn2)cc1.Cl | 65.1 µM | 0.0682 µM | 27.2 µM | 1450 nM | 3.98 µM | 2.3 µM | 2.07 µM | 6.35 ×10⁻⁶ cm/s | 30% | > 90% | 12.2 µM | 27 | > 60% |
| NS(=O)(=O)c1cc2c(cc1Cl)N=CNS2(=O)=O [CHLOROTHIAZIDE] |  |  |  |  |  |  |  | 0.66 ×10⁻⁶ cm/s |  |  |  |  |  |
